# According to patent publication US20040214799A1, “Cancerous metastasis inhibitors containing carbacyclic phosphatidic acid derivatives” (priority 2001, published 2004):
# Where “and” joins values, the source holds several entries; their conditions need not be identical. Equal values may be shown once.
# System: Mouse malignant melanoma B16-F0
# Experiment: B16 melanoma hematogenous lung metastasis model; as to Metastatic nodules, Abdominal cavity Adipose tissue: key: −: Absent; +: Present; as to Metastatic nodules, Abdominal cavity Adrenal gland: key: −: Absent; +: Present; as to Metastatic nodules, Abdominal cavity Diaphragm: key: −: Absent; +: Present; as to Metastatic nodules, Abdominal cavity Kidney: key: −: Absent; +: Present; as to Metastatic nodules, Abdominal cavity Ovary: key: −: Absent; +: Present; as to Metastatic nodules, Abdominal cavity Spleen: key: −: Absent; +: Present; as to Metastatic nodules, Thoracic cavity: key: −: Absent; +: Present; as to Metastatic nodules, Tissue around glandual clitoris: key: −: Absent; +: Present
# Assay type: in vivo
# Conditions: for invasion of lymphocytes into metastatic lesions observed in cases: animals with metastatic lesions; for Metastatic nodules, Abdominal cavity Adipose tissue / Metastatic nodules, Abdominal cavity Adrenal gland / Metastatic nodules, Abdominal cavity Diaphragm / Metastatic nodules, Abdominal cavity Kidney / Metastatic nodules, Abdominal cavity Ovary / Metastatic nodules, Abdominal cavity Spleen / Metastatic nodules, Thoracic cavity / Metastatic nodules, Tissue around glandual clitoris: autopsy day 14, individual animals; for Number of lung tumor nodules, Range (mininum-maximum) / Number of mice having lung tumor nodules: day 14, N 6; for Number of lung tumor nodules: day 14, mean ± S.D.; for Number of lung tumor nodules / Number of mice having metastatic lesions: N 6; for Number of mice having metastatic lesions / Findings: Invasion of lymphocytes into melanoma metastatic lesion: lung histopathology; for Findings: Invasion of lymphocytes into melanoma metastatic lesion: individual animals; for Number of metastatic lesions per section, Large size: major diameter 0.65 mm ≦ and <1.3 mm; for Number of metastatic lesions per section, Large size / Number of metastatic lesions per section, Small size / Number of metastatic lesions per section, Total: mean ± S.D.; for Number of metastatic lesions per section, Small size: major diameter <0.65 mm, left lobe and posterior lobe
# Method: cPA-19 and cPA-20 were used as test substances. 0.1 w/v % BSA/PBS which was prepared by dissolving Albumin, Bovine [essentially Fatty Acid Free] (BSA, Lot No. 89H7604, Sigma chemical company) in Ca^2+ and Mg^2+ free PBS (pH 7.2), was used as a medium After preparation, the solution was sterilized by filtration using a filter (0.22 μm, Millipore). Preparation was performed when used. cPA-5 was used as a positive control substance.
# A medium was added in a volume required for a test substance or a positive control substance. Dissolution was performed by ultrasonication, thereby preparing a 0.16 mg/mL solution. The 0.16 mg/mL solution containing a test substance was diluted with a medium, thereby preparing 0.08 and 0.02 mg/mL solutions. All mixtures were prepared when used.
# Mice were purchased from CHARLES RIVER JAPAN. INC. The line employed herein was C57BL/6NCrj (sexuality: female). The number of animals kept in stock was 60, and the age of these animals when kept in stock was 4 weeks. […] The environmental conditions for the test system were as follows:
# Mouse malignant melanoma B16-F0 was used as a tumor cell. The cell was purchased from Dainippon Pharmaceutical Co., Ltd.
# Dulbecco's Modified Eagle's Media containing 10% feral bovine serum and kanamycin were used for culture. […] A medium was added to stop the action of trypsin while pipetting, thereby preparing a cell suspension. The suspension was diluted by one-tenth with a medium for culturing, followed by subculturing until it reached a volume sufficient for grafting.
# A cell suspension was prepared by the same technique as the subculture method. Specifically, the cells were washed with a Ca^2+ and Mg^2+ free phosphate buffer [PBS(−)], and then harvested. The harvested cells were suspended in a 10 mL of PBS(−), thereby preparing a cell suspension. The number of cells in the cell suspension was measured to obtain the total cell number. 50 μL of the cell suspension, 100 μL of 0.4% trypan blue liquid and 100 μL of PBS(−) were mixed, and then viable count was measured. The survival rate of the cells was calculated from the viable count and total cell number.
# Based on the body weight on the day of the administration of the test substance, mice were grouped into 8 test groups according to the stratified continuous randomization method as shown in Table 2 below.
# The mixture was administered via the caudal vein. The number of grafted cells was 5×10^5 cells/body. The dose of the test substance was 0.001, 0.004 or 0.008 mg/body, and the dose of the positive control substance was 0.008 mg/body.
# On day 14 after the administration of the test substance, blood was collected from the posterior portion of the abdominal vena cava under isoflurane anesthesia. After the mice were sacrificed by blood-letting, the presence or absence of intrapleural and intraperitoneal metastatic nodules was confirmed. Lungs were extracted, and then fixed with a 10% neutral buffered formalin solution. The number of nodules resulting from lung metastasis was measured under a stereoscopic microscope (magnification: 10 times).
# After the measurement of the number of nodules resulting from lung metastasis, samples were paraffin-embedded, and then thin sections were prepared. Hematoxylin eosinic-stained samples were prepared from these sections. The number of metastatic lesions in the certain portions of the left lobe and the posterior lobe was measured, and then the lesions were sorted by size. On the basis of the diameter (0.65 mm) of an object lens (×40), metastatic lesions with major diameters of less than 0.65 mm were classified as having a small size, and those with major diameters of between 0.65 mm or more and less than 1.30 mm were classified as having a large size. Furthermore, the degree of invasion of lymphocytes into metastatic lesions was confirmed qualitatively.
# The representative value of each test group was denoted as mean±standard deviation (mean±S.D.). Differences in mean values were examined as follows.
# [1] = 0.001 mg/body i.v., autopsy, 6 mice
# [2] = 0.004 mg/body i.v., autopsy, 6 mice
# [3] = 0.008 mg/body i.v., autopsy, 6 mice
substance,measurement,setting,value
carba-ΔPal-cPA [cPA-20],invasion of lymphocytes into metastatic lesions observed in cases,0.001 mg/body i.v.,1 out of 4
same,"Metastatic nodules, Abdominal cavity Adipose tissue",0.001 mg/body i.v.,−
same,"Metastatic nodules, Abdominal cavity Adrenal gland",0.001 mg/body i.v.,−
same,"Metastatic nodules, Abdominal cavity Diaphragm",0.001 mg/body i.v.,− (5×) and +
same,"Metastatic nodules, Abdominal cavity Kidney",0.001 mg/body i.v.,−
same,"Metastatic nodules, Abdominal cavity Ovary",0.001 mg/body i.v.,− (5×) and +
same,"Metastatic nodules, Abdominal cavity Spleen",0.001 mg/body i.v.,− (5×) and +
same,"Metastatic nodules, Thoracic cavity",0.001 mg/body i.v.,− (5×) and +
same,"Metastatic nodules, Tissue around glandual clitoris",0.001 mg/body i.v.,− (5×) and +
same,cases with metastatic nodules in the diaphragm,[1],1 case
same,cases with metastatic nodules in the ovary,[1],1 cases
same,cases with metastatic nodules in the spleen,[1],1 case
same,cases with metastatic nodules in the thoracic cavity,[1],1 case
same,cases with metastatic nodules in tissue around the glandual clitoris,[1],1 case
same,"Number of lung tumor nodules, Range (mininum-maximum)",0.001 mg/body i.v.,17-112
same,Number of mice having lung tumor nodules,0.001 mg/body i.v.,6
same,Number of lung tumor nodules,0.001 mg/body i.v.,58 ± 40
same,Number of mice having metastatic lesions,0.001 mg/body i.v.,4
same,Findings: Invasion of lymphocytes into melanoma metastatic lesion,0.001 mg/body i.v.,− (3×) and ++
same,"Number of metastatic lesions per section, Large size",0.001 mg/body i.v.,1.2 ± 1.3
same,"Number of metastatic lesions per section, Small size",0.001 mg/body i.v.,3.2 ± 3.5
same,"Number of metastatic lesions per section, Total",0.001 mg/body i.v.,4.3 ± 4.6
same,number of metastatic nodules of B16-F0 in the lungs versus medium group (in words),0.004 mg/body i.v.,significant decrease in the number of metastatic nodules
same,invasion of lymphocytes into metastatic lesions observed in cases,0.004 mg/body i.v.,no invasions were observed in 1 case
same,"Metastatic nodules, Abdominal cavity Adipose tissue",0.004 mg/body i.v.,−
same,"Metastatic nodules, Abdominal cavity Adrenal gland",0.004 mg/body i.v.,−
same,"Metastatic nodules, Abdominal cavity Diaphragm",0.004 mg/body i.v.,−
same,"Metastatic nodules, Abdominal cavity Kidney",0.004 mg/body i.v.,−
same,"Metastatic nodules, Abdominal cavity Ovary",0.004 mg/body i.v.,−
same,"Metastatic nodules, Abdominal cavity Spleen",0.004 mg/body i.v.,− (5×) and +
same,"Metastatic nodules, Thoracic cavity",0.004 mg/body i.v.,−
same,"Metastatic nodules, Tissue around glandual clitoris",0.004 mg/body i.v.,−
same,cases with metastatic nodules in the spleen,[2],1 case
same,metastatic nodules in the thoracic cavity,[2],no metastatic nodules were observed
same,"Number of lung tumor nodules, Range (mininum-maximum)",0.004 mg/body i.v.,0-4
same,Number of mice having lung tumor nodules,0.004 mg/body i.v.,2 &
same,Number of lung tumor nodules,0.004 mg/body i.v.,1 ± 2
same,Number of mice having metastatic lesions,0.004 mg/body i.v.,1 &&
same,Findings: Invasion of lymphocytes into melanoma metastatic lesion,0.004 mg/body i.v.,−
same,"Number of metastatic lesions per section, Large size",0.004 mg/body i.v.,0 ± 0!!
same,"Number of metastatic lesions per section, Small size",0.004 mg/body i.v.,0.2 ± 0.4
same,"Number of metastatic lesions per section, Total",0.004 mg/body i.v.,0.2 ± 0.4!!
same,metastasis / number of metastatic nodules in the lungs versus medium group (in words),0.008 mg/body i.v.,almost completely suppressed metastasis
same,"Metastatic nodules, Abdominal cavity Adipose tissue",0.008 mg/body i.v.,−
same,"Metastatic nodules, Abdominal cavity Adrenal gland",0.008 mg/body i.v.,−
same,"Metastatic nodules, Abdominal cavity Diaphragm",0.008 mg/body i.v.,−
same,"Metastatic nodules, Abdominal cavity Kidney",0.008 mg/body i.v.,−
same,"Metastatic nodules, Abdominal cavity Ovary",0.008 mg/body i.v.,−
same,"Metastatic nodules, Abdominal cavity Spleen",0.008 mg/body i.v.,− (5×) and +
same,"Metastatic nodules, Thoracic cavity",0.008 mg/body i.v.,−
same,"Metastatic nodules, Tissue around glandual clitoris",0.008 mg/body i.v.,−
same,cases with metastatic nodules in the spleen,[3],1 case
same,metastatic nodules in the thoracic cavity,[3],no metastatic nodules were observed
same,"Number of lung tumor nodules, Range (mininum-maximum)",0.008 mg/body i.v.,0-1
same,Number of mice having lung tumor nodules,0.008 mg/body i.v.,1 &&
same,Number of lung tumor nodules,0.008 mg/body i.v.,0 ± 0
same,Number of mice having metastatic lesions,0.008 mg/body i.v.,0 &&
same,"Number of metastatic lesions per section, Large size",0.008 mg/body i.v.,0 ± 0!!
same,"Number of metastatic lesions per section, Small size",0.008 mg/body i.v.,0 ± 0!
same,"Number of metastatic lesions per section, Total",0.008 mg/body i.v.,0 ± 0!!
same,"number of mice having intrapleural or intraperitoneal metastatic nodules, dose dependence (in words)","0.001, 0.004 and 0.008 mg/body i.v.",decreased as the dose increased
same,action of suppressing the lung metastasis of B16-F0 compared with cPA-5,0.004 and 0.008 mg/body i.v.,stronger than that of cPA-5
